Results published in patent US20240316055A1, “METHODS FOR TREATING LEIGH SYNDROME” (DBCC Research, LLC, priority 2023, published 2024).

Key:
Assay type in all cases: cell-based
ECHS1 Fibroblast cells [1] = experiment: Propionate potency screen (cell viability, DAPI nuclei count); settings: for concentration-dependent curves: propionate potency screen, FIG. 4; for Propionate assay hits: 10 mM propionate medium, 96 hours, 3-fold serial dilution starting at 10 uM, Z-score >2
Description: The suspension was centrifuged at 200x g for 5 min. The suspension was discarded and the pellet was resuspended in the 10 mM propionate medium (DMEM+10% FBS+10 mM sodium propionate) and seeded at 750 cells/well (50 μL) into the compound wells (1 μM and 10 μM). For the positive control experiment, the cells were suspended in 10 mM propionate medium +5.5 mM glucose +0.01% DMSO and seeded at 750 cells/well (50 μL) into the blank wells. For the negative control experiment, the cells were suspended in the 10 mM propionate medium +0.01% DMSO and seeded at 750 cells/well (50 μL) into the blank wells. […] The plates were then washed 3x with 50 uL/well of PBS. The cells were stained with 25 μL/well of a solution DAPI and left at room temperature for 1 hr. The plates were then washed 3x with 50 uL/well of PBS prior to imaging. Agilent BioTek EL406 Microplate Washer Dispenser was used for the cell fixation and staining protocol. The plates were imaged using GE InCell2200 Cell Analyzer using PerkinElmer Columbus software quantification protocol. The data was analyzed using Genedata, Vortex, and Abase software. A Z-score value of >2 was used for both the Prestwick/Selleck and SPECS library (based on the negative control population) to determine hit selection.
ECHS1 Fibroblast cells were harvested at 70-80% confluent with trypsin and suspended in DMEM+10% FBS. The suspension was centrifuged at 200x g for 5 min. The suspension was discarded and the pellet was resuspended in the either the 5.5 mM galactose medium (DMEM+10% FBS+5.5 mM of galactose) or the 10 mM propionate medium (DMEM+10% FBS+10 mM sodium propionate). […] For the positive control experiment, the cells were suspended in either the 5.5 mM galactose medium or 10 mM propionate medium+5.5 mM glucose+0.01% DMSO and seeded at 750 cells/well (50 μL) into the blank wells. For the negative control experiment, the cells were suspended in the 5.5 mM galactose or 10 mM propionate medium +0.01% DMSO and seeded at 750 cells/well (50 μL) into the blank wells. […] The plates were then washed 3x with 50 μL/well of PBS. The cells were stained with 25 μL/well of a solution of DAPI and left at room temperature for 1 hr. The plates were then washed 3x with 50 μL/well of PBS prior to imaging. Agilent BioTek EL406 Microplate Washer Dispenser was used for the cell fixation and staining protocol. The plates were imaged using GE InCell2200 Cell Analyzer using PerkinElmer Columbus software quantification protocol. The data was analyzed using Genedata, Vortex, and Abase software. A Z-score value of >2 was used for both the Prestwick/Selleck and SPECS library (based on the negative control population) to determine hit selection.

ECHS1 Fibroblast cells [2] = experiment: Galactose potency screen (cell viability, DAPI nuclei count); settings: for Galactose assay hits: 5.5 mM galactose medium, 96 hours, 3-fold serial dilution starting at 10 uM, Z-score >2
Description: Galactose Screen: Compound library plates were obtained from Prestwick/Selleck and SPECS (7,591 compounds total, 27 compounds/plate/concentration at 1 μM and 10 μM, 384-well plates). ECHS1 Fibroblast cells were harvested at 95% confluent with trypsin and suspended in Dulbecco's Modified Eagle Medium (DMEM)+10% Fetal Bovine Serum (FBS). The suspension was centrifuged at 200x g for 5 min. The suspension was discarded and the pellet was resuspended in the 5.5 mM galactose medium (DMEM+10% FBS+5.5 mM galactose) and seeded at 750 cells/well (50 μL) into the compound wells (1 μM and 10 μM). For the positive control experiment, the cells were suspended in 5.5 mM galactose medium+5.5 mM glucose+0.01% DMSO and seeded at 750 cells/well (50 μL) into the blank wells. For the negative control experiment, the cells were suspended in the 5.5 mM galactose medium+0.01% DMSO and seeded at 750 cells/well (50 μL) into the blank wells. The seeded plates were incubated at 37° C. for 96 hours, then 15 μL/well of 16% paraformaldehyde solution was added to the plates and allowed to sit for 15 min to fix the cells. The plates were then washed 3x with 50 μL/well of phosphate-buffered saline (PBS). The cells were stained with […] of a solution of 4,6-diamidino-2-phenylindole dilactate (DAPI, Invitrogen) and left at room temperature for 1 hr. The plates were then washed 3x with 50 μL/well of PBS prior to imaging. Agilent BioTek EL406 Microplate Washer Dispenser was used for the cell fixation and staining protocol. The plates were imaged using GE InCell2200 Cell Analyzer using PerkinElmer Columbus software quantification protocol. The data was analyzed using Genedata, Vortex, and Abase software. A Z-score value of >2 was used for the Prestwick/Selleck compound library and >3 for the SPECS library (based on the negative control population) to determine hit selection.
ECHS1 Fibroblast cells were harvested at 70-80% confluent with trypsin and suspended in DMEM+10% FBS. The suspension was centrifuged at 200x g for 5 min. The suspension was discarded and the pellet was resuspended in the either the 5.5 mM galactose medium (DMEM+10% FBS+5.5 mM of galactose) or the 10 mM propionate medium (DMEM+10% FBS+10 mM sodium propionate). The cells were seeded at 750 cells/well (50 μL) into a 384-well plate containing the test compounds (3-fold serial dilution across 10 plates, starting at 10 uM). For the positive control experiment, the cells were suspended in either the 5.5 mM galactose medium or 10 mM propionate medium+5.5 mM glucose+0.01% DMSO and seeded at 750 cells/well (50 μL) into the blank wells. For the negative control experiment, the cells were suspended in the 5.5 mM galactose or 10 mM propionate medium +0.01% DMSO and seeded at 750 cells/well (50 μL) into the blank wells. The seeded plates were incubated at 37° C. for 96 hours, then 15 μL/well of 16% paraformaldehyde solution was added to the plates and allowed to sit for 15 min to fix the cells. The plates were then washed 3x with 50 μL/well of PBS. The cells were stained with 25 μL/well of a solution of DAPI and left at room temperature for 1 hr. The plates were then washed 3x with 50 μL/well of PBS prior to imaging. Agilent BioTek EL406 Microplate Washer Dispenser was used for the cell fixation and staining protocol. The plates were imaged using GE InCell2200 Cell Analyzer using PerkinElmer Columbus software quantification protocol. The data was analyzed using Genedata, Vortex, and Abase software. A Z-score value of >2 was used for both the Prestwick/Selleck and SPECS library (based on the negative control population) to determine hit selection.

[3] = test system: ECHS1 patient-derived fibroblasts; experiment: Mitochondrial respiration assay (Seahorse); settings: 48 hours; for respiration: glucose or galactose conditions, 1, 5 or 10 μM
Description: To assess the mechanism of action of hit compounds from the screens of previous Examples, which were based on rescue of viability after metabolic challenge, Seahorse assay was used to measure mitochondrial function in response to treatment at multiple concentrations. The Seahorse assay measures the following parameters: oxygen consumption; basal respiration rate; ATP-linked respiration; maximal respiration; reserve capacity; and ATP production rate. At baseline (no treatment), the ECHS1 patient-derived fibroblasts had lower respiration rates than the control fibroblasts in glucose culturing conditions (20% reduction) and in galactose culturing conditions (30% reduction).
ECHS1 patient-derived fibroblasts and age-matched and sex-matched control fibroblasts were initially grown in standard media (DMEM+2 mM glutamine+1 mM pyruvate) containing 10 mM glucose as the energy source. Cells were seeded into specialized 96-well plates at a density of 10,000 cells per well. One day after plating, cells were treated with the test compounds at the concentrations of 0, 1, 5, or 10 μM. Half of the samples were cultured in 10 mM glucose media in addition to the test compounds. The remaining half of the sample were cultured in 10 mM galactose media, which is a metabolic challenge, in addition to the test compound. Test compounds were incubated with cells for 48 hours. According to the standard Seahorse protocol, the following stressors were added to cells in sequential order: 2 μM oligomycin; 5 μM carbonyl cyanide-4-(trifluoromethoxy)phenylhydrazone (FCCP); 9 μM FCCP; 2 μM rotenone and 2 μM antimycin A. Data were normalized to cell number per well using a Hoechst stain for cell nuclei. Two rounds of experiments were conducted. The results were consistent between the two rounds.

| SMILES | concentration-dependent curves (ECHS1 Fibroblast cells [1]) | Galactose assay hits (ECHS1 Fibroblast cells [2]) | Propionate assay hits (ECHS1 Fibroblast cells [1]) | further results |
| --- | --- | --- | --- | --- |
| CCCCOc1c(C(=O)c2c(F)cc(C)cc2F)cnc2n[nH]cc12 [BMS-265246, (4-butoxy-2H-pyrazolo[3,4-b]pyridin-5-yl)-(2,6-difluoro-4-methylphenyl)methanone] | non-linear response | – | – | – |
| COc1ccc(-n2c(C)c([N+](=O)[O-])c3ccc(O)cc32)cc1 [ID-8, 1-(4-methoxyphenyl)-2-methyl-3-nitroindol-6-ol] | non-linear response | – | – | – |
| Cc1cccc(-c2n[nH]cc2-c2ccc3ncccc3n2)n1 [RepSox, 2-[5-(6-methylpyridin-2-yl)-1H-pyrazol-4-yl]-1,5-naphthyridine] | – | hits | hits | respiration [3]: did not result in major changes |
| COc1nccc(-c2c(-c3ccc(F)cc3)ncn2[C@H]2CC[C@H](O)CC2)n1 [SB-239063, 4-[4-(4-fluorophenyl)-5-(2-methoxypyrimidin-4-yl)imidazol-1-yl]cyclohexan-1-ol] | – | – | – | nuclei count (ECHS1 Fibroblast cells [2]; galactose assay, FIG. 1): concentration-dependent increase; concentration-dependent curves (ECHS1 Fibroblast cells [2]; galactose potency screen, FIG. 2): non-linear response |
| CNC(C)C(=O)NC1CCCCC2CCC(C(=O)NC(c3ccccc3)c3cn(CCCCc4ccc(CCCCn5cc(C(NC(=O)C6CCC7CCCCC(NC(=O)C(C)NC)C(=O)N76)c6ccccc6)nn5)cc4)nn3)N2C1=O [SM-164, (3S,6S, 10aS)-N-[(S)-[1-[4-[4-[4-[4-[(S)-[[(3S,6S,10aS)-6-[[(2S)-2-(methylamino)propanoyl]amino]-5-oxo-2,3,6,7,8,9,10,10a-octahydro-1H-pyrrolo[1,2-a]azocine-3-carbonyl]amino]-phenylmethyl]triazol-1-yl]butyl]phenyl]butyl]triazol-4-yl]-phenylmethyl]-6-[(2S)-2-(methylamino)propanoyl]amino]-5-oxo-2,3,6,7,8,9,10,10a-octahydro-1H-pyrrolo[1,2-a]azocine-3-carboxamide] | non-linear response | – | – | – |
| Fc1ccc(-c2nc(-c3c(F)cccc3F)[nH]c2-c2ccncc2)cc1 [TA-01, 4-[2-(2,6-difluorophenyl)-4-(4-fluorophenyl)-1H-imidazol-5-yl]pyridine] | – | hits | hits | – |
| CCC(=O)Nc1cccc(Oc2nc(Nc3ccc(N4CCN(C)CC4)cc3OC)ncc2Cl)c1 [WZ4003, N-[3-[5-chloro-2-[2-methoxy-4-(4-methylpiperazin-1-yl)anilino]pyrimidin-4-yl]oxyphenyl]propanamide] | non-linear response | – | – | nuclei count (ECHS1 Fibroblast cells [1]; propionate assay, FIG. 3): concentration-dependent increase |
| CCOC(=O)C1=C(C)NC(C)=C(C(=O)OC)C1c1cccc(Cl)c1Cl (stereo not shown) [felodipine, 5-O-ethyl 3-O-methyl 4-(2,3-dichlorophenyl)-2,6-dimethyl-1,4-dihydropyridine-3,5-dicarboxylate] | – | – | – | ATP production from glycolysis [3]: increased; basal and maximal respiration [3]: decreased; respiration [3]: did not result in major changes |
| Cc1ccc(-n2nc(C(C)(C)C)cc2NC(=O)NCc2cc(F)ccc2Oc2ccc3c(cnn3CCO)c2)cc1 [pexmetinib] | non-linear response | hits | hits | increase in cell number per well ([3]; 1 μM, both galactose and glucose cultured plates): 14%; total ATP production ([3]; most pronounced in the 1-5 μM range): some recovery; maximal respiration ([3]; galactose-treated cells): less pronounced; maximal respiration ([3]; glucose-treated cells): increased to similar levels to the control cells |
